Measurements taken from the supplement of paper PMC10627819.

Key:
S. aureus Newman [1] = experiment: fitness (endpoint OD595 vs no drug) (fraction); higher = more growth
Summary of the method: (§1)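 Fitness is computed from the optical density at which cultures reach stationary phase, divided by the robust mean of no-drug control wells. Any value above 1 is set to 1. Cultures started at OD595 0.01 in 384-well plates with TSB, LB Lennox or CY at 37 °C, and OD595 was read every 30 min for 14 h against a first-reading background.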

B. subtilis 168 [2] = experiment: as above
Summary of the method: as §1

S. pneumoniae D39V [3] = experiment: as above
Summary of the method: as §1

S. aureus Newman [4] = experiment: Bliss interaction score (quartile over a dose matrix) (fitness difference); higher = more antagonism (negative = synergy)
Summary of the method: (§2)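 Growth was read as OD595 when cultures entered stationary phase, and each value was divided by the plate's robust no-drug mean and capped at 1. This normalised ratio is the fitness value, and fitness for each single drug came from the combination data. The Bliss score subtracts the expected fitness, taken as the product, from the observed fitness and is given as quartiles across technical, biological and donor/recipient replicates.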

S. aureus DSM 20231 = experiment: as above
Summary of the method: as §2

B. subtilis 168 [5] = experiment: as above
Summary of the method: as §2

S. pneumoniae D39V [6] = experiment: as above
Summary of the method: as §2
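Wherever Bliss interaction score (quartile over a dose matrix) is given: first quartile when negative (synergy) and third quartile when positive (antagonism).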
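Wherever fitness (endpoint OD595 vs no drug) is given: OD595 on entry to stationary phase over no-drug wells; at most 1.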

C[C@@H]1O[C@@H]1P(=O)(O)O [Fosfomycin] + CN[C@@H]1[C@H](O[C@H]2[C@H](O[C@H]3[C@H](O)[C@@H](O)[C@H](N=C(N)N)[C@@H](O)[C@@H]3N=C(N)N)O[C@@H](C)[C@]2(O)C=O)O[C@@H](CO)[C@H](O)[C@H]1O [Streptomycin]
fitness
Settings | partner 1 µg/mL | partner 2 µg/mL | partner 4 µg/mL | partner 8 µg/mL
B. subtilis 168 [2], first compound 1.562 µg/mL | – | 0.664 | – | –
B. subtilis 168 [2], first compound 3.124 µg/mL | – | 0.399 | – | –
S. aureus Newman [1], first compound 0.781 µg/mL | 0.599 | 0.565 | – | –
S. aureus Newman [1], first compound 1.562 µg/mL | 0.517 | 0.467 | – | –
S. aureus Newman [1], first compound 3.124 µg/mL | 0.156 | 0.131 | 0.0427 | –
S. pneumoniae D39V [3], first compound 1.25 µg/mL | – | 0.919 | 0.921 | 0.902
S. pneumoniae D39V [3], first compound 2.5 µg/mL | – | 0.903 | 0.9 | 0.918
S. pneumoniae D39V [3], first compound 5 µg/mL | – | 0.715 | 0.747 | 0.722

S. pneumoniae D39V [3], partner 16 µg/mL, one replicate
Settings | fitness
first compound 1.25 µg/mL | 0.765
first compound 2.5 µg/mL | 0.714
first compound 5 µg/mL | 0.436

Settings | Bliss interaction score
B. subtilis 168 [5] | -0.187
S. aureus DSM 20231 | -0.14
S. aureus Newman [4] | -0.106
S. pneumoniae D39V [6] | -0.0437

COc1cccc2c1C(=O)c1c(O)c3c(c(O)c1C2=O)C[C@@](O)(C(=O)CO)C[C@@H]3O[C@H]1C[C@H](N)[C@H](O)[C@H](C)O1 [Doxorubicin] + CN(C)c1cc(NC(=O)CNC(C)(C)C)c(O)c2c1C[C@H]1C[C@H]3[C@H](N(C)C)C(O)=C(C(N)=O)C(=O)[C@@]3(O)C(O)=C1C2=O [Tigecycline]
fitness
Settings | first compound 0.25 µg/mL | first compound 0.5 µg/mL | first compound 0.625 µg/mL | first compound 1 µg/mL | first compound 1.25 µg/mL | first compound 2.5 µg/mL
B. subtilis 168 [2], partner 0.039 µg/mL | – | – | ≥ 1 | – | 0.952 | 0.65
B. subtilis 168 [2], partner 0.078 µg/mL | – | – | 0.868 | – | 0.939 | 0.609
B. subtilis 168 [2], partner 0.156 µg/mL | – | – | 0.919 | – | 0.879 | 0.693
S. aureus Newman [1], partner 0.039 µg/mL | – | – | 0.783 | – | 0.761 | 0.71
S. aureus Newman [1], partner 0.078 µg/mL | – | – | 0.822 | – | 0.821 | 0.742
S. aureus Newman [1], partner 0.156 µg/mL | – | – | 0.828 | – | 0.811 | 0.744
S. pneumoniae D39V [3], partner 0.325 µg/mL | 0.927 | 0.975 | – | 0.931 | – | –
S. pneumoniae D39V [3], partner 0.65 µg/mL | 0.928 | 0.94 | – | 0.89 | – | –
S. pneumoniae D39V [3], partner 1.3 µg/mL | 0.926 | 0.961 | – | 0.884 | – | –
S. pneumoniae D39V [3], partner 2.6 µg/mL | 0.874 | 0.912 | – | 0.79 | – | –

fitness, B. subtilis 168 [2], one replicate
Settings | first compound 0.625 µg/mL | first compound 1.25 µg/mL | first compound 2.5 µg/mL
partner 0.125 µg/mL | 0.963 | 0.984 | 0.973
partner 0.25 µg/mL | 0.89 | 0.892 | 0.916
partner 0.5 µg/mL | 0.86 | 0.913 | 0.925

Settings | Bliss interaction score
B. subtilis 168 [5] | 0.0886
S. aureus DSM 20231 | -0.0419
S. aureus Newman [4] | -0.0645
S. pneumoniae D39V [6] | 0.0654

O=C(O)c1cn(C2CC2)c2cc(N3CCNCC3)c(F)cc2c1=O [Ciprofloxacin] + CN[C@@H]1[C@H](O[C@H]2[C@H](O[C@H]3[C@H](O)[C@@H](O)[C@H](N=C(N)N)[C@@H](O)[C@@H]3N=C(N)N)O[C@@H](C)[C@]2(O)C=O)O[C@@H](CO)[C@H](O)[C@H]1O [Streptomycin]
fitness
Settings | partner 1 µg/mL | partner 2 µg/mL | partner 4 µg/mL | partner 8 µg/mL
B. subtilis 168 [2], first compound 0.0098 µg/mL | – | 0.861 | – | –
B. subtilis 168 [2], first compound 0.0195 µg/mL | – | 0.601 | – | –
B. subtilis 168 [2], first compound 0.039 µg/mL | – | 0.0408 | 0.0521 | 0.0363
S. aureus Newman [1], first compound 0.0375 µg/mL | 0.737 | 0.7 | – | –
S. aureus Newman [1], first compound 0.075 µg/mL | 0.68 | 0.65 | – | –
S. aureus Newman [1], first compound 0.15 µg/mL | – | 0.0504 | 0.066 | –
S. pneumoniae D39V [3], first compound 0.125 µg/mL | – | 0.916 | 0.936 | 0.909
S. pneumoniae D39V [3], first compound 0.25 µg/mL | – | 0.872 | 0.774 | 0.765

S. pneumoniae D39V [3], partner 16 µg/mL, one replicate
Settings | fitness
first compound 0.125 µg/mL | 0.739
first compound 0.25 µg/mL | 0.668
first compound 0.5 µg/mL | 0.379

Settings | Bliss interaction score
B. subtilis 168 [5] | -0.109
S. aureus DSM 20231 | -0.0869
S. aureus Newman [4] | 0.0876
S. pneumoniae D39V [6] | -0.0549
